Where two headings read alike, the source gives them in different places. Residues, ends and D or L forms follow the SMILES beside them. *: point of attachment. Cbz = O=C(OCc1ccccc1)*
Key:
YAP/TAZ [1] = assay: immunoblotting / phos-tag gels of YAP/TAZ phosphorylation in cultured cell lines; assay type: cell-based, human; details: for YAP phosphorylation by PDE inhibitors: ibudilast 100 μM, IBMX 100 μM, rolipram 50 μM, theophylline 1 mM, 1 hr; for YAP dephosphorylation, different doses: different doses of LPA, S1P, LPC or PA for 1 h; for YAP/TAZ activation by growth factors: EGF 50 ng/ml, PDGF 50 ng/ml, insulin 200 nM, FGF 10 ng/ml; for YAP/TAZ phosphorylation by BSA preparations: serum-starved HEK293A, 1 or 10 mg/ml BSA
Method: Immunoblotting was performed using standard protocol. […] The phos-tag reagents were purchased from Wako Chemicals, and gels containing phos-tag were prepared according to manufacture's instructions. YAP proteins can be separated into multiple bands in the presence of phos-tag depending on differential phosphorylation levels, with phosphorylated proteins run migrate slower.
(§1) Immunoblotting was performed using standard protocol. Antibodies for pYAP (S127), YAP, TAZ (V386), pCREB, CREB, pMLC2 (S19), pMLC2 (T18/S19), MST1, MST2, and Lats1 were from Cell Signaling Technology. Lats2 antibody was from Bethyl laboratories. HA-HRP, GFP, and MLC2 antibodies were from Santa Cruz biotechnology. Tubulin, HSP90 and Flag-HRP were purchased from Sigma Aldrich. PKA antibody was obtained from BD biosciences. GAPDH antibody was a gift from Dr. Yan Luo. Yki antibody was a gift from Dr. Kenneth Irvine. The phos-tag reagents were purchased from Wako Chemicals, and gels containing phos-tag and MnC12 were prepared according to manufacturer's instructions. YAP proteins can be separated into multiple bands on phos-tag gels, with the phosphorylated form of YAP proteins migrating at a slower speed.

YAP/TAZ [2] = assay: immunoblotting of YAP/TAZ phosphorylation in mouse cells (primary hepatocytes, 3T3-L1); assay type: cell-based
Method: (§2) Immunoblotting was performed using standard protocol. Antibodies for pYAP (S127), pYAP(S381/384), pMST1/2, TAZ, pERK, ERK1/2, Lats1, MST1, pAKT (S473), pS6K, S6K were from Cell Signaling, antibodies for YAP (H-125), CTGF, Cyr61, Gq/11, G13 and 14-3-3θ were from Santa Cruz, TEAD1 antibody was from BD biosciences, pTAZ (S89) antibody was in-house raised, GAPDH antibody was a gift from Dr. Yan Luo. The phos-tag reagents were purchased from Wako Chemicals, and gels containing phos-tag were prepared according to manufacture's instructions. YAP proteins can be separated into multiple bands in the presence of phos-tag depending on differential phosphorylation levels, with phosphorylated proteins run migrate slower.
as §1

3T3-L1 cells = assay: adipogenesis of 3T3-L1 cells (oil red staining); assay type: cell-based, mouse; details: 3T3-L1 with insulin, dexamethasone, troglitazone; IBMX 250 μM; KT5720 5 μM
Method: Adipogenesis. Murine 3T3-L1 cells were maintained in DMEM medium containing 10% calf serum (Hyclone). To initiate adipocyte differentiation, confluent 3T3-L1 cells switched into FBS containing DMEM medium; in addition, insulin, dexamethasone, troglitazone (Tro) were added; in selected samples, IBMX (250 μM) or forskolin (100 μM) were used to increase cAMP and PKA activity. For experiments using KT5720, 3T3-L1 cells were pre-treated with KT5720 (5 μM) overnight in advance and fresh KT5720 was added when adipogenesis was initiated. Two days later, medium was changed into DMEM containing 10% FBS and insulin. And after another two days, cells were incubated in DMEM with FBS. Cells were typically harvested on day 6 depending on the formation and maturation of lipid droplets. Cells were then subjected to RNA extraction or oil red (Sigma Aldrich) staining according to manufacturer's instructions.

Lats1 = Lats1 immunoprecipitation kinase assay with GST-YAP substrate; assay type: cell-based, human; details: HEK293A; Ki16425 10 μM 30 min; C3 2 μg/ml 4 h
Method: Lats1 or HA-Lats2 kinase assays were performed similarly but using GST-YAP as substrates in the absence of [γ-^32P] ATP. The phosphorylation of GST-YAP at S127 was determined by immunoblotting using pYAP antibody.
Cells were lysed using mild lysis buffer (50 mM HEPES at pH 7.5, 150 mM NaCl, 1 mM EDTA, 1% NP-40, 10 mM pyrophosphate, 10 mM glycerophosphate, 50 mM NaF, 1.5 mM Na3VO4, protease inhibitor cocktail [Roche], 1 mM PMSF). Cell lysates were cleared and used for immunoprecipitation. Lats1 antibody (Cell Signaling Technology) was mixed with cell lysates for 1 hr at 4° C., and then protein A agarose beads were added in for 1 hr. After four washes with lysis buffer, beads were washed once with wash buffer (40 mM HEPES, 200 mM NaCl) and once with kinase assay buffer (30 mM HEPES, 50 mM potassium acetate, 5 mM MgCl2). The immunoprecipitated Lats1 was then subjected to a kinase assay in the presence of 500 μM cold ATP, 10 μCi [γ-32P] ATP, and 1 μg of GST-YAP expressed and purified from Escherichia coli as substrate. The reaction mixtures were incubated for 30 min at 30° C., terminated with SDS sample buffer, and subjected to SDS-PAGE and immunoblotting.

YAP = assay type: cell-based, human
CTGF = assay: expression of YAP/TAZ target gene CTGF; assay type: cell-based, human; details: HEK293A
Method: as §2
Following various treatments, cells were washed with cold phosphate-buffered saline and subjected to RNA extraction using an RNeasy Plus mini kit (Qiagen). […] Complementary DNA was then diluted and used for quantification (with β-actin gene as a control) by real-time PCR, which was performed using KAPA SYBR FAST qPCR master mix (Kapa Biosystems) and the 7300 real-time PCR system (Applied Biosystems). […]
RNA extraction, reverse transcription and real-time PCR. […] After dilution, cDNA levels were quantified by real-time PCR using KAPA SYBR FAST qPCR master mix (Kapa Biosystems) and the 7300 real-time PCR system (Applied Biosystems). […]

[3] = 3T3-L1, 10 μM forskolin, 100 μM IBMX or 5 μM KT5720, 1 hr
[4] = HEK293A pre-treated 30 min (1 μM Torin1, 10 μM U0126, 10 μM SB253580, 10 nM wortmannin), then 10% FBS 1 h

Which YAP phosphorylation (YAP/TAZ [1]; U2OS cells, 10 μM, 1 h) does the source give for `Oc1cc2c(cc1O)[C@H]1c3ccccc3CN[C@@H]1CC2` (racemic) [Dihydrexidine] here?
Its YAP phosphorylation is “strong increase”.

For `CO[C@@H]1[C@@H]2OP(=O)(O)OC[C@H]2O[C@H]1n1c(Sc2ccc(Cl)cc2)nc2c(N)ncnc21` [8-CPT-2′-O-Me-cAMP], which “YAP phosphorylation by PKA or Epac selective activators” value (YAP/TAZ [1]; HEK293A, 1 h) is on record?
Its value is “less dramatic”.

How did the “YAP phosphorylation by PDE inhibitors” value (YAP/TAZ [1]; MDA-MB-231) turn out when `CC(C)Cn1c(=O)n(C)c(=O)c2[nH]cnc21` [IBMX] was run?
Its value is “induced YAP phosphorylation”.

And the TAZ protein level (YAP/TAZ [2]; [3])?
Its TAZ protein level is “decreased”.

What about the YAP phosphorylation (YAP/TAZ [2]; [3]) of the same compound?
The YAP phosphorylation was “induced”.

And the adipogenesis (3T3-L1 cells)?
Its adipogenesis is “induced”.

For `CCCCCCOC(=O)[C@]1(O)C[C@@H]2O[C@@]1(C)n1c3ccccc3c3c4c(c5c6ccccc6n2c5c31)C(=O)NC4` [KT5720], which YAP phosphorylation (YAP/TAZ [1]; MDA-MB-231, KT5720 5 μM) is on record?
The YAP phosphorylation was “decreased”.

What about the “effect on forskolin- and epinephrine-induced YAP phosphorylation” value (YAP/TAZ [1]; MDA-MB-231, KT5720 5 μM 30 min, then 10 μM epinephrine or forskolin 1 hr) of the same compound?
The value was “largely blocked”.

And the TAZ protein level (YAP/TAZ [2]; [3])?
The TAZ protein level was “increased”.

And the YAP phosphorylation (YAP/TAZ [2]; [3])?
Its YAP phosphorylation is “repressed”.

And the “effect on glucagon-induced YAP phosphorylation” value (YAP/TAZ [2]; primary hepatocytes isolated from mice, KT5720)?
Its value is “abolished”.

What about the adipogenesis (3T3-L1 cells) of the same compound?
The adipogenesis was “inhibited”.

`Cc1noc(-c2ccc(CSCCC(=O)O)cc2)c1NC(=O)OC(C)c1ccccc1Cl` (stereo not drawn) [Ki16425] was tested. Which “effect on Lats1 inhibition by LPA, S1P, and serum” value (Lats1) did it give?
The value was “effectively blocked”.

What about the “effect on LPA-induced dephosphorylation of YAP/TAZ” value (YAP/TAZ [1]; HEK293A, Ki16425 10 μM, 30 min) of the same compound?
The value was “blocked”.

And the “effect on S1P-induced dephosphorylation of YAP/TAZ” value (YAP/TAZ [1]; HEK293A, Ki16425 10 μM, 30 min)?
The value was “not”.

What about the “effect on the ability of serum to repress YAP/TAZ phosphorylation” value (YAP/TAZ [1]; HEK293A, Ki16425 10 μM, particularly at 0.2% serum) of the same compound?
The value was “partially inhibited”.

For `CC(C)C[C@@H](C=O)NC(=O)[C@H](CC(C)C)NC(=O)[C@H](CC(C)C)NC(=O)OCc1ccccc1` [MG132] (Cbz-Leu-Leu-Leu-aldehyde), which “YAP protein levels under various doses of C108 with proteasome inhibitor” value (YAP) is on record?
The value was “mostly maintained”.

What does the source list for `CCCCCCCCCCCCC/C=C/[C@@H](O)[C@@H](N)COP(=O)(O)O` [S1P, sphingosine 1-phosphate]?
expression of CTGF (CTGF): induced; YAP/TAZ dephosphorylation, time course (YAP/TAZ [1]; HEK293A, 1 μM for indicated times): potently induced YAP/TAZ dephosphorylation; YAP dephosphorylation, different doses (YAP/TAZ [1]; HEK293A): potently induced

Which “effect on the ability of FBS to dephosphorylate YAP/TAZ” value (“effect … to dephosphorylate YAP/TAZ” for short) (YAP/TAZ [1]; [4]) does the source give for `C[S+]([O-])c1ccc(-c2nc(-c3ccc(F)cc3)c(-c3ccncc3)[nH]2)cc1` (stereo not drawn) [SB253580] here?
Its value is “no effect”.

For `N#CC(=C(/N)Sc1ccccc1N)/C(C#N)=C(\N)Sc1ccccc1N` [U0126], which “effect … to dephosphorylate YAP/TAZ” value (YAP/TAZ [1]) is on record?
Its value is “no effect”.

Which “YAP phosphorylation by PKA or Epac selective activators” value (YAP/TAZ [1]; HEK293A, 1 h) does the source give for `O=C(Nc1ncnc2c1ncn2[C@@H]1O[C@@H]2COP(=O)(O)O[C@H]2[C@H]1O)c1ccccc1` [b-Bnz-cAMP] here?
Its value is “dramatically increased”.

For `C/C1=C/C(=O)O[C@@H]2C[C@@H](CC[C@H](C)/C=C\CC1)O[C@@](O)([C@@H]1CSC(=O)N1)C2` [latrunculin B], which “effect on the effects of LPA or S1P on YAP” value (YAP/TAZ [1]; HEK293A 1 μg/ml LatB 30 min, MCF10A localization) is on record?
The value was “blocked”.

How did the “YAP phosphorylation by PDE inhibitors” value (YAP/TAZ [1]; MDA-MB-231) turn out when `COc1ccc(C2CNC(=O)C2)cc1OC1CCCC1` (stereo not drawn) [rolipram] was run?
The value was “induced YAP phosphorylation”.

For `Cn1c(=O)c2[nH]cnc2n(C)c1=O` [theophylline], which “YAP phosphorylation by PDE inhibitors” value (YAP/TAZ [1]; MDA-MB-231) is on record?
Its value is “induced YAP phosphorylation”.

For `CCC(=O)N1CCN(c2ccc(-n3c(=O)ccc4cnc5ccc(-c6cnc7ccccc7c6)cc5c43)cc2C(F)(F)F)CC1` [torin], which “effect … to dephosphorylate YAP/TAZ” value (YAP/TAZ [1]; [4]) is on record?
The value was “no effect”.

For `COC[C@H]1OC(=O)c2coc3c2[C@@]1(C)C1=C(C3=O)[C@@H]2CCC(=O)[C@@]2(C)C[C@H]1OC(C)=O` [wortmannin], which “effect … to dephosphorylate YAP/TAZ” value (YAP/TAZ [1]; [4]) is on record?
Its value is “no effect”.

Which “YAP/TAZ activation by growth factors” value (YAP/TAZ [1]; HEK293A) does the source give for EGF: growth factor tested here?
Its value is “not involved”.

Which “YAP/TAZ phosphorylation by BSA preparations” value (YAP/TAZ [1]; 1 h) does the source give for “Fraction V BSA: BSA prepared by ethanol precipitation” here?
The value was “no activity”.

With PDGF as the compound, how does the “YAP/TAZ activation by growth factors” value (YAP/TAZ [1]; HEK293A) read?
The value was “not involved”.

For “fatty acid-free BSA: fatty acid-free BSA preparation”, which “YAP/TAZ phosphorylation by BSA preparations” value (YAP/TAZ [1]; 1 h) is on record?
Its value is “no activity”.

What does the source list for glucagon: ligand known to activate PKA?
YAP phosphorylation (YAP/TAZ [2]; primary hepatocytes isolated from mice, glucagon): increased; YAP phosphorylation (YAP/TAZ [2]; primary mouse hepatocytes, 2 μM glucagon, 1 h): increased

Which “YAP/TAZ activation by growth factors” value (YAP/TAZ [1]; HEK293A) does the source give for insulin: growth factor tested here?
The value was “not involved”.

How did the “dephosphorylation of YAP/TAZ by phospholipids” value (YAP/TAZ [1]; HEK293A, 100 μM lipid) turn out when phosphatidic acid [PA] was run?
The value was “strongly induced dephosphorylation”.

And the “concentration needed to induce YAP dephosphorylation” value (YAP/TAZ [1]; HEK293A, 1 h)?
Its value is 100 µM.

What about the “YAP dephosphorylation, different doses” value (YAP/TAZ [1]; HEK293A) of the same compound?
The value was “much higher concentrations”.

And the “potency relative to LPA (times less potent)” value (YAP/TAZ [1]; YAP dephosphorylation, HEK293A)?
The value was 1,000 times.

Reference: patent US20150157584A1, “INHIBITORS OF HIPPO-YAP SIGNALING PATHWAY” (The Regents of the University of California, priority 2012, published 2015)
